These results are taken from publication PMC10562900 (RSC Advances, 2023).

Common to all, as to assay type: biochemical
Assay [1] concerns the target T1, h-e5′NT (Homo sapiens, UniProt P21589).
T1 sequence (P21589 27-574): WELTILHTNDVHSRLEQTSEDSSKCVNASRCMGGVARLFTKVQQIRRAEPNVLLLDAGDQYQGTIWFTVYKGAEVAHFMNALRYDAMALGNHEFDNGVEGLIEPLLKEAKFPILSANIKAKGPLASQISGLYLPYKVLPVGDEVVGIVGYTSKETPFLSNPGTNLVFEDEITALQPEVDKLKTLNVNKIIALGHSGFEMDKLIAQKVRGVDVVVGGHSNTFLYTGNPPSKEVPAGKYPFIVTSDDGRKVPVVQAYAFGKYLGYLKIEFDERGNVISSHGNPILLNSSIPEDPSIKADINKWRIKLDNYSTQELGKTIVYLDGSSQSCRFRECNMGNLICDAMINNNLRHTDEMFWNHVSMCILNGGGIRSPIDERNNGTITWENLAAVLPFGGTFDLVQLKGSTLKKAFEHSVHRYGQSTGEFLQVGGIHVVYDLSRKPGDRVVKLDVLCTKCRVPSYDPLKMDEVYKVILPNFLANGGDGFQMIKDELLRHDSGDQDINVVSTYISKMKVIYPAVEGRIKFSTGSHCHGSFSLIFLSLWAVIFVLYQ
As to the kind of experiment: CD73.

For assay [2], the target named is T1, h-e5′NT. As to the kind of experiment: Enzyme kinetic studies, h-e5′NT. The following applies: Lineweaver–Burk.
For assay [3], the target named is T2, r-e5′NT (Rattus norvegicus, UniProt P21588).
T2 sequence (P21588 29-576): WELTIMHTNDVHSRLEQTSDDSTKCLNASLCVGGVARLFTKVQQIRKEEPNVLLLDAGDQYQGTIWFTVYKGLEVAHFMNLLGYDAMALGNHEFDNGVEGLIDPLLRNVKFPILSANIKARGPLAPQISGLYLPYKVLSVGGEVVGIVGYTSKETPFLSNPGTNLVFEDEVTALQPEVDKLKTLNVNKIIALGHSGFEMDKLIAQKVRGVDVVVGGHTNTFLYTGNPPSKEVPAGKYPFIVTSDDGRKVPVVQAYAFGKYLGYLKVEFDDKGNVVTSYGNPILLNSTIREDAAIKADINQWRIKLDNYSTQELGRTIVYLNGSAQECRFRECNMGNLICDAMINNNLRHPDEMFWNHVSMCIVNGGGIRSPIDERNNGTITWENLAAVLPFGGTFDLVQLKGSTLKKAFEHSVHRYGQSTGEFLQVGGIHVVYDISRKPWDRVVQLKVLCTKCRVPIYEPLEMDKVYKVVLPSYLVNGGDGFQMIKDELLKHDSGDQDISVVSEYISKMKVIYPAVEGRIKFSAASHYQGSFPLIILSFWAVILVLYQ
Kind of assay: CD73.

A further assay concerns the target T3, h-TNAP (Homo sapiens, UniProt P05186).
T3 sequence (P05186 18-524): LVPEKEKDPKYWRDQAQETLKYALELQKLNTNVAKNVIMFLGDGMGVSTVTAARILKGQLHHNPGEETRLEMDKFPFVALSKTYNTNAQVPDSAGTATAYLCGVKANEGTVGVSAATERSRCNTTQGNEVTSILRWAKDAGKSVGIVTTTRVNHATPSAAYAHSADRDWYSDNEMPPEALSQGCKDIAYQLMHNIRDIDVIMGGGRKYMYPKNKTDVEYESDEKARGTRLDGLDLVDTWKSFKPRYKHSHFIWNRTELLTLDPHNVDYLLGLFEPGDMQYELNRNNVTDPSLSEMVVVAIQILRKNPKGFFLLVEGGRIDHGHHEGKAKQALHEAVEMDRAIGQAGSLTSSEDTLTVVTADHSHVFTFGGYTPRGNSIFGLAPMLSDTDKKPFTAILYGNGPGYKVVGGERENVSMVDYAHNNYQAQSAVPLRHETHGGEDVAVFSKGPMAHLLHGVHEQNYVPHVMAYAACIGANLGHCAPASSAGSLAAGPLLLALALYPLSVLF
Kind of assay: h-TNAP inhibition assay.

The target of assay [4] is T2, r-e5′NT. Kind of assay: Enzyme kinetic studies, r-e5′NT. The following applies: Lineweaver–Burk.

The structures appear in SMILES notation.

As for `O=C(Cc1c[nH]c2ccccc12)Nc1ccccc1OS(=O)(=O)c1ccc(F)cc1` [5c, 2-(2-(1H-indol-3-yl)acetamido)phenyl 4-fluorobenzenesulfonate], the values for the half-maximal inhibitory concentration (IC50) on h-e5′NT [1], against r-e5′NT [3] and at h-TNAP were 370 ± 30 nM, 1660 ± 40 nM and 1480 ± 20 nM, respectively. Moreover, the “Mode of inhibition h-e5′NT” value on h-e5′NT [2] is “un-competitive”.

Take `O=C(Cc1c[nH]c2ccccc12)Nc1ccccc1OS(=O)(=O)c1ccc(I)cc1` [5i, 2-(2-(1H-indol-3-yl)acetamido)phenyl 4-iodobenzenesulfonate]: the “Mode of inhibition r-e5′NT” value on r-e5′NT [4] is listed as “competitive”. The IC50 against h-e5′NT [1] came out at 4850 ± 550 nM; at r-e5′NT [3], 810 ± 50 nM; against h-TNAP it was 2270 ± 240 nM.

Usually IC50 stands for the point on the concentration scale where inhibition reaches its midpoint.
